Measurements: patent US8669246B2, “Substituted amide compound” (Astellas Pharma Inc., priority 2009, dated 2014)

Key:
human LPA1 = molecular target: T1, human LPA1 (Homo sapiens, UniProt Q92633); test: Antagonistic action on human LPA1: inhibition of LPA-stimulated increase in intracellular calcium ion concentration in human LPA1-CHO cells; format: cell-based; conditions: LPA 100 nM, Fluo-4/FLIPR calcium signal
T1 construct: expressed in transfected cells
Method: Antagonistic Action of Compound of Formula (I) on Human LPA1
The antagonistic action on a human LPA 1 was evaluated with an index of an inhibitory action on the LPA-stimulated increase in intracellular calcium ion concentration, using human LPA 1-CHO cells [cells in which human LPA1 receptors are stably expressed in CHO (dhfr gene-deficient) cell lines].
Establishment of human LPA1-CHO cells was performed based on the basic genetic engineering techniques.
The established cells were maintained by passage in a nucleic acid-free α-MEM medium (Invitrogen) containing 10% FBS, 1% penicillin/streptomycin (Invitrogen), and 100 nM methotrexate, and before experiment, the medium was replaced with a medium that had been reduced to 1% of the […] concentration, then seeded in 96-well plates to 1.5×10e^5 cells/100 μL/well, and incubated overnight.
On the day of experiment, a 0.5 μM Fluo-4 solution [a solution prepared by adding 20 mM HEPES (Sigma), […] probenecid (Nacalai Tesque), 0.05% BSA, 0.5 μM Fluo-4 AM (Dojindo Laboratories), and 0.1% Pluronic […] (Molecular Probe Co.) to a Hanks Balanced Solt Solution (Invitrogen)] was added to the cells, and Fluo-4 was loaded on the cells by incubating for 2 hours at room temperature.
After loading Fluo-4, the Fluo-4 solution was replaced with a reaction solution [a solution obtained by adding 20 mM HEPES, […] probenecid, and 0.05% BSA to a Hanks Balanced Solt Solution], and then measurement was performed using a device for measuring an intracellular calcium concentration (FLIPR tetra, Molecular Devices Inc.).
A reaction solution in which the compound of the formula (I) (with a final concentration of 0.1 nM to 10 μM) had been dissolved was added to each of the wells, the signals were measured over time for 4 minutes, then a reaction solution in which LPA (final concentration 100 nM) had been dissolved was added thereto, and the signals were measured over time for 2 minutes. The difference between the maximum and minimum response during one minute from addition of LPA was calculated. The inhibitory activity was calculated, with a response when LPA only (not including the compound) was added was taken as 0% inhibition, and a response when a reaction solution not including both of the compound and LPA was added was taken as 100% inhibition. Then the 50% inhibitory concentration was calculated as an IC50 value (nM).
Human LPA1-CHO cells used in the present test were the cells with the same sequence as described in the pamphlet of International Publication WO 99/19513 were used. Further, Ex represents Example No. as denoted below.

T1 sequence (Q92633 whole entry): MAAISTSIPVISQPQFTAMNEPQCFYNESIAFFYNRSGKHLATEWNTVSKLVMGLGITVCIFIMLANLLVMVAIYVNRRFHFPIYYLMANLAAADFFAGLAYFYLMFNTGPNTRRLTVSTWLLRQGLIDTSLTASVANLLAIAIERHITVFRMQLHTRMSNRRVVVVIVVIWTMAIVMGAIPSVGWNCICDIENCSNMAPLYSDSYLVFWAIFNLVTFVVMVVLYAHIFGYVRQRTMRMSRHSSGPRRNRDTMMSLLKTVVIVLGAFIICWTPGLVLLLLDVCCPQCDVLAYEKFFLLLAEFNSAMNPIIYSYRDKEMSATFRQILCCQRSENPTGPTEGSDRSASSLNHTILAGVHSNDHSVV

Row | IC50 (human LPA1) | melting point | SMILES
1 | 32 nM | 137 to 138 °C | COc1ccc([C@@H](O)C(=O)N(CCCc2ccccc2)Cc2nc(C(=O)NS(=O)(=O)C(C)C)c(C)s2)cc1 [Example 285]
2 | 17 nM | – | COc1cc(C(=O)N(CCCc2ccccc2)Cc2nc(C(=O)NS(=O)(=O)NC(C)=O)cs2)cc(OC)c1C [Example 168, N-(acetylsulfamoyl)-2-{[(3,5-dimethoxy-4-methylbenzoyl)(3-phenylpropyl)amino]methyl}-1,3-thiazole-4-carboxamide]
3 | – | 151 to 153 °C | COCc1c(OC)cc(C(=O)N(CCCc2ccccc2)Cc2nc(C(=O)NS(=O)(=O)NOC)c(C)s2)cc1OC [Example 161]
4 | 16 nM | – | Cc1cc(C(=O)N(CCCc2ccccc2)Cc2nc(C(=O)NS(N)(=O)=O)c(Cl)s2)cc(C)c1O [Example 147]
5 | 19 nM | 136 to 141 °C | COc1cc(C(=O)N(CCCc2ccccc2)Cc2nc(C(=O)NS(N)(=O)=O)co2)cc(OC)c1C [Example 121]
6 | – | 128 to 131 °C | COc1cc(C(=O)N(CCCc2ccccc2F)Cc2nc(C(=O)NS(=O)(=O)N(C)C)cs2)cc(OC)c1C [Example 119]
7 | – | 118 to 120 °C | COc1ccc([C@@H](O)C(=O)N(CCCc2cccs2)Cc2nc(C(=O)NS(=O)(=O)N(C)C)c(C)s2)cc1 [Example 256]
8 | 33 nM | 110 to 112 °C | COc1ccc([C@@H](O)C(=O)N(CCCc2ccccc2)Cc2nc(C(=O)NS(=O)(=O)N(C)C)c(C)s2)cc1 [Example 290]
9 | 44 nM | 124 to 126 °C | CCS(=O)(=O)NC(=O)c1nc(CN(CCCc2cccs2)C(=O)[C@H](O)c2ccc(OC)cc2)sc1C [Example 272]
10 | – | 112 to 113 °C | COc1ccc(C2(C(=O)N(CCCc3ccco3)Cc3nc(C(=O)NS(=O)(=O)N(C)C)c(C)s3)CC2)nc1 [Example 221]
11 | – | 111 to 112 °C | CCS(=O)(=O)NC(=O)c1nc(CN(CCCc2ccccc2)C(=O)[C@H](O)c2ccc(OC)cc2F)sc1C [Example 278]
12 | 23 nM | – | COc1cc(C(=O)N(CCCc2ccccc2)Cc2nc(C(=O)NS(=O)(=O)CC(C)O)cs2)cc(OC)c1C (centres unmarked) [Example 175]

More lines, now with the values behind:

Row | SMILES | IC50 (human LPA1) | melting point
13 | COc1cc(C(=O)N(CCCc2ccc(Cl)s2)Cc2nc(C(=O)NS(N)(=O)=O)cs2)cc(OC)c1C [Example 110] | 11 nM | 154 to 156 °C
14 | COc1ccc(C2(C(=O)N(CCCc3ccccc3)Cc3nc(C(=O)NS(=O)(=O)N(C)C)c(C)s3)CC2)nc1 [Example 31] | – | 125 to 126 °C
15 | COc1cc(C(=O)N(CCCc2cc(F)ccc2F)Cc2nc(C(=O)NS(N)(=O)=O)cs2)cc(OC)c1C [Example 115] | 16 nM | –
16 | COc1cc(C(=O)N(CCCc2ccccc2)Cc2nc(C(=O)NS(C)(=O)=O)c(C)s2)cc(OC)c1C [Example 109] | 22 nM | 128 to 131 °C
17 | CCNS(=O)(=O)[N-]C(=O)c1csc(CN(CCCc2ccccc2)C(=O)c2cc(OC)c(C)c(OC)c2)n1.[K+] | – | 203 to 205 °C
18 | COc1cc(C(=O)N(CCCc2ccccc2F)Cc2nc(C(=O)NS(N)(=O)=O)cs2)cc(OC)c1C [Example 113] | 12 nM | 145 to 146 °C
19 | COc1ccc(C(O)C(=O)N(CCCc2ccccc2)Cc2nc(C(=O)NS(=O)(=O)N(C)C)c(C)s2)cn1 (centres unmarked) [Example 28] | – | 178 to 179 °C
20 | COc1cc(C(=O)N(CCCc2ccccc2)Cc2nc(C(=O)NS(=O)(=O)c3cccs3)cs2)cc(OC)c1C [Example 5, 2-{[(3,5-dimethoxy-4-methylbenzoyl)(3-phenylpropyl)amino]methyl}-N-(2-thienylsulfonyl)-1,3-thiazole-4-carboxamide] | 7.8 nM | –
21 | COc1cc(C(=O)N(CCCc2ccccc2)Cc2nc(C(=O)NS(=O)(=O)Nc3ccccn3)cs2)cc(OC)c1C [Example 79] | 16 nM | –
22 | COc1ccc(C2(C(=O)N(CCCc3cccc(F)c3)Cc3nc(C(=O)[N-]S(=O)(=O)N(C)C)c(C)s3)CC2)nc1.[K+] | – | 219 to 221 °C
